Target: T1, AsPC-1 HiBiT-KRASG12D (Homo sapiens, UniProt P01116, G12D)
T1 construct: insert the HiBiT tag onto the N-terminus of one or more of the endogenous KRAS alleles; endogenous in cells; host or cells: AsPC-1 (ATCC CRL-1682), CRISPR-Cas9 knock-in clone, one tagged allele
Experiment: HiBiT degradation assay (G12D), AsPC-1 HiBiT-KRASG12D cells
Assay type: cell-based
Settings: 24 hours treatment; for Dmax: ASPC1, AsPC-1 HiBiT-KRASG12D cells, maximum degradation observed; for DC50: AsPC-1 HiBiT-KRASG12D cells, HiBiT luminescence
How it was run: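 Luminescence read-out of HiBiT-tagged endogenous KRASG12D in AsPC-1 cells after 24 h compound exposure at 37° C; lytic Nano-Glo HiBiT detection, 45 min at room temperature. A parallel alamar blue read (4 h) checked viability, normalized to DMSO-only controls.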

T1 sequence (P01116 1-188 isoform P01116-2 G12D): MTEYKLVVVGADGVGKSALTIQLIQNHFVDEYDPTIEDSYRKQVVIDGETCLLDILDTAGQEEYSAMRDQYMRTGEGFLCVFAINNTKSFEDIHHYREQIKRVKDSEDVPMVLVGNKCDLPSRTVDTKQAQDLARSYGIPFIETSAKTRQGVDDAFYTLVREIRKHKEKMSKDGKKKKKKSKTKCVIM

| Structure (SMILES) | Dmax | DC50 |
| --- | --- | --- |
| CCc1cccc2cc(O)cc(-c3ncc4c(N5C[C@H]6CC[C@@H](C5)N6)nc(OCCN5CCC(C)(CN6CCN(c7cc([C@H](C(=O)N8C[C@H](O)C[C@H]8C(=O)N[C@@H](C)c8ccc(-c9scnc9C)cc8)C(C)C)on7)CC6)CC5)nc4c3F)c12 [Compound 187, (2S,4R)-1-((R)-2-(3-(4-((1-(2-((4-((1R,5S)-3,8-diazabicyclo[3.2.1]octan-3-yl)-7-(8-ethyl-3-hydroxynaphthalen-1-yl)-8-fluoropyrido[4,3-d]pyrimidin-2-yl)oxy)ethyl)-4-methylpiperidin-4-yl)methyl)piperazin-1-yl)isoxazol-5-yl)-3-methylbutanoyl)-4-hydroxy-N—((S)-1-(4-(4-methylthiazol-5-yl)phenyl)ethyl)pyrrolidine-2-carboxamide] | 80 to 100% | < 600 nM |
| CCc1cccc2cc(O)cc(-c3ncc4c(N5CC6CCC(C5)N6)nc(OC[C@]56CCCN5[C@H](COC(=O)N5CCN(c7cc([C@H](C(=O)N8C[C@H](O)C[C@H]8C(=O)N[C@@H](C)c8ccc(-c9scnc9C)cc8)C(C)C)on7)CC5)CC6)nc4c3F)c12 [Compound 105, [(3S,7aR)-7a-{[(4-{3,8-diazabicyclo[3.2.1]octan-3-yl}-7-(8-ethyl-3-hydroxynaphthalen-1-yl)-8-fluoropyrido[4,3-d]pyrimidin-2-yl)oxy]methyl}-hexahydro-1H-pyrrolizin-3-yl]methyl 4-{5-[(2R)-1-[(2S,4R)-4-hydroxy-2-{[(1S)-1-[4-(4-methyl-1,3-thiazol-5-yl)phenyl]ethyl]carbamoyl}pyrrolidin-1-yl]-3-methyl-1-oxobutan-2-yl]-1,2-oxazol-3-yl}piperazine-1-carboxylate] | 80 to 100% | < 600 nM |
| CCc1cccc2cc(O)cc(-c3ncc4c(N5CC6CCC(C5)N6)nc(OC[C@@H]5CC[C@H](COC(=O)N6CCN(c7cc([C@H](C(=O)N8C[C@H](O)C[C@H]8C(=O)N[C@@H](C)c8ccc(-c9scnc9C)cc8)C(C)C)on7)CC6)N5C)nc4c3F)c12 [Compound 259, [(2R,5S)-5-{[(4-{3,8-diazabicyclo[3.2.1]octan-3-yl}-7-(8-ethyl-3-hydroxynaphthalen-1-yl)-8-fluoropyrido[4,3-d]pyrimidin-2-yl)oxy]methyl}-1-methylpyrrolidin-2-yl]methyl 4-{5-[(2R)-1-[(2S,4R)-4-hydroxy-2-{[(1S)-1-[4-(4-methyl-1,3-thiazol-5-yl)phenyl]ethyl]carbamoyl}pyrrolidin-1-yl]-3-methyl-1-oxobutan-2-yl]-1,2-oxazol-3-yl}piperazine-1-carboxylate] | 80 to 100% | < 600 nM |
| Cc1ncsc1-c1ccc([C@H](C)NC(=O)[C@@H]2C[C@@H](O)CN2C(=O)[C@@H](c2cc(N3CCN(C(=O)OC[C@H]4CC[C@]5(COc6nc(N7CC8CCC(C7)N8)c7cnc(-c8cccc9ccc(F)c(F)c89)c(F)c7n6)CCCN45)CC3)no2)C(C)C)cc1 (relative stereo) [Compound 63, [(3R,7aS)-7a-{[(4-{3,8-diazabicyclo[3.2.1]octan-3-yl}-7-(7,8-difluoronaphthalen-1-yl)-8-fluoropyrido[4,3-d]pyrimidin-2-yl)oxy]methyl}-hexahydro-1H-pyrrolizin-3-yl]methyl 4-{5-[(2R*)-1-[(2S,4R)-4-hydroxy-2-{[(1S)-1-[4-(4-methyl-1,3-thiazol-5-yl)phenyl]ethyl]carbamoyl}pyrrolidin-1-yl]-3-methyl-1-oxobutan-2-yl]-1,2-oxazol-3-yl}piperazine-1-carboxylate] | 20 to 60% | < 600 nM |
| C#Cc1c(F)ccc2cc(O)cc(-c3ncc4c(N5CC6CCC(C5)N6)nc(OC[C@]56CCCN5[C@H](COC(=O)N5CCN(c7cc([C@H](C(=O)N8C[C@H](O)C[C@H]8C(=O)N[C@@H](C)c8ccc(-c9scnc9C)cc8)C(C)C)on7)CC5)CC6)nc4c3F)c12 [Compound 56, [(3S,7aR)-7a-{[(4-{3,8-diazabicyclo[3.2.1]octan-3-yl}-7-(8-ethynyl-7-fluoro-3-hydroxynaphthalen-1-yl)-8-fluoropyrido[4,3-d]pyrimidin-2-yl)oxy]methyl}-hexahydro-1H-pyrrolizin-3-yl]methyl 4-{5-[(2R)-1-[(2S,4R)-4-hydroxy-2-{[(1S)-1-[4-(4-methyl-1,3-thiazol-5-yl)phenyl]ethyl]carbamoyl}pyrrolidin-1-yl]-3-methyl-1-oxobutan-2-yl]-1,2-oxazol-3-yl}piperazine-1-carboxylate] | 80 to 100% | < 600 nM |
| CCc1cccc2cc(O)cc(-c3ncc4c(N5CC6CCC(C5)N6)nc(OC[C@@H]5CC[C@]6(COC(=O)N7CCN(c8cc([C@H](C(=O)N9C[C@H](O)C[C@H]9C(=O)N[C@@H](C)c9ccc(-c%10scnc%10C)cc9)C(C)C)on8)CC7)CCCN56)nc4c3F)c12 [Compound 342, [(3S,8S)-3-[[4-(3,8-diazabicyclo[3.2.1]octan-3-yl)-7-(8-ethyl-3-hydroxy-1-naphthyl)-8-fluoro-pyrido[4,3-d]pyrimidin-2-yl]oxymethyl]-1,2,3,5,6,7-hexahydropyrrolizin-8-yl]methyl 4-[5-[(1R)-1-[(2S,4R)-4-hydroxy-2-[[(1S)-1-[4-(4-methylthiazol-5-yl)phenyl]ethyl]carbamoyl]pyrrolidine-1-carbonyl]-isobutyl]isoxazol-3-yl]piperazine-1-carboxylate] | 80 to 100% | < 600 nM |
| CCc1cccc2cc(O)cc(-c3ncc4c(N5CC6CCC(C5)N6)nc(OC[C@]56CCCN5[C@@H](COC(=O)N(C)Cc5cc([C@@H](C(=O)N7C[C@H](O)C[C@H]7C(=O)N[C@@H](C)c7ccc(-c8scnc8C)cc7)C(C)C)on5)CC6)nc4c3F)c12 [Compound 93, [(3R,7aR)-7a-{[(4-{3,8-diazabicyclo[3.2.1]octan-3-yl}-7-(8-ethyl-3-hydroxynaphthalen-1-yl)-8-fluoropyrido[4,3-d]pyrimidin-2-yl)oxy]methyl}-hexahydro-1H-pyrrolizin-3-yl]methyl N-({5-[(2S)-1-[(2S,4R)-4-hydroxy-2-{[(1S)-1-[4-(4-methyl-1,3-thiazol-5-yl)phenyl]ethyl]carbamoyl}pyrrolidin-1-yl]-3-methyl-1-oxobutan-2-yl]-1,2-oxazol-3-yl}methyl)-N-methylcarbamate] | 20 to 60% | 1000 to 3000 nM |
| CCc1cccc2cc(O)cc(-c3ncc4c(N5CC6CCC(C5)N6)nc(OC[C@@H]5CC[C@@H](COC(=O)N6CCN(c7cc([C@H](C(=O)N8C[C@H](O)C[C@H]8C(=O)N[C@@H](C)c8ccc(-c9scnc9C)cc8)C(C)C)on7)[C@H](C)C6)N5C)nc4c3F)c12 [Compound 301, [(2S,5S)-5-[[4-(3,8-diazabicyclo[3.2.1]octan-3-yl)-7-(8-ethyl-3-hydroxy-1-naphthyl)-8-fluoro-pyrido[4,3-d]pyrimidin-2-yl]oxymethyl]-1-methyl-pyrrolidin-2-yl]methyl (3R)-4-[5-[(1R)-1-[(2S,4R)-4-hydroxy-2-[[(1S)-1-[4-(4-methylthiazol-5-yl)phenyl]ethyl]carbamoyl]pyrrolidine-1-carbonyl]-2-methyl-propyl]isoxazol-3-yl]-3-methyl-piperazine-1-carboxylate] | 80 to 100% | < 600 nM |
